From patent US20250171457A1, “NITROGEN-CONTAINING HETEROCYCLIC COMPOUND HAVING NRF2 ACTIVATION EFFECT” (CHUGAI SEIYAKU KABUSHIKI KAISHA, priority 2022, published 2025)

system: Nrf2 transcriptional activity (pARE-Luc reporter) in HepG2 cells; test: In vitro Nrf2 transcriptional activity measurement by ARE-dependent reporter assay in HepG2 cell; assay type: cell-based, human; details: Homo sapiens; HepG2 cells transfected with pARE-Luc, 4 hours at 37° C.; luciferase activity of Example 1-54 or Example 17-23 at 3.75 μM defined as 100%
Procedure, shortened: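 Luminescence readout (Bright-Glo) after 4 h, 37° C compound exposure of HepG2 cells carrying the ARE-luciferase vector pGL4.37. Each well converted to % response versus reference compound at 3.75 μM, and EC50 derived from dose-response curves.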

SMILES	EC50 [nM]
O=C(O)c1cc(F)c(-c2cccc3c2OCN(C(=O)c2c(Cl)cc(N4CCC5(CCOCC5)C4)cc2Cl)C3)cc1N1CCOCC1 [Compound 4-26, 4-[3-[2,6-Dichloro-4-(8-oxa-2-azaspiro[4.5]decan-2-yl)benzoyl]-2,4-dihydro-1,3-benzoxazin-8-yl]-5-fluoro-2-morpholin-4-ylbenzoic acid]	8.2
O=C(O)c1cc(F)c(-c2cccc3c2OCN(C(=O)c2c(Cl)cc(N4CCC(CO)CC4)cc2Cl)C3)cc1N1CCOCC1 [Compound 4-27, 4-[3-[2,6-Dichloro-4-[4-(hydroxymethyl)piperidin-1-yl]benzoyl]-2,4-dihydro-1,3-benzoxazin-8-yl]-5-fluoro-2-morpholin-4-ylbenzoic acid]	1.1
O=C(O)c1cc(F)c(-c2cccc3c2OCN(C(=O)c2c(Cl)cc(N4CC[C@@H](O)C4)cc2Cl)C3)cc1N1CCOCC1 [Compound 4-28, 4-[3-[2,6-Dichloro-4-[(3R)-3-hydroxypyrrolidin-1-yl]benzoyl]-2,4-dihydro-1,3-benzoxazin-8-yl]-5-fluoro-2-morpholin-4-ylbenzoic acid]	1.6
CC(C)(C)OC(=O)N1CCN(c2cc(Cl)c(C(=O)N3COc4c(cccc4-c4cc(N5CCOCC5)c(C(=O)O)cc4F)C3)c(Cl)c2)CC1 [Compound 4-29, 4-[3-[2,6-Dichloro-4-[4-[(2-methylpropan-2-yl)oxycarbonyl]piperazin-1-yl]benzoyl]-2,4-dihydro-1,3-benzoxazin-8-yl]-5-fluoro-2-morpholin-4-ylbenzoic acid]	2.1
COCC1CN(c2cc(Cl)c(C(=O)N3COc4c(cccc4-c4cc(N5CCOCC5)c(C(=O)O)cc4F)C3)c(Cl)c2)CCN1C (stereo not drawn) [Compound 4-30, 4-[3-[2,6-Dichloro-4-[3-(methoxymethyl)-4-methylpiperazin-1-yl]benzoyl]-2,4-dihydro-1,3-benzoxazin-8-yl]-5-fluoro-2-morpholin-4-ylbenzoic acid]	1.1
CN1CCN(c2cc(Cl)c(C(=O)N3COc4c(cccc4-c4cc(N5CCOCC5)c(C(=O)O)cc4F)C3)c(Cl)c2)CC12CC2 [Compound 4-31, 4-[3-[2,6-Dichloro-4-(4-methyl-4,7-diazaspiro[2.5]octan-7-yl)benzoyl]-2,4-dihydro-1,3-benzoxazin-8-yl]-5-fluoro-2-morpholin-4-ylbenzoic acid]	1.2
Cc1cc(-c2cccc3c2OCN(C(=O)c2c(Cl)cc(N4CCOCC4)cc2Cl)C3)cc(N2CCOCC2)c1C(=O)O [Compound 4-32, 4-[3-(2,6-Dichloro-4-morpholin-4-ylbenzoyl)-2,4-dihydro-1,3-benzoxazin-8-yl]-2-methyl-6-morpholin-4-ylbenzoic acid]	6.9
O=C(O)c1cc(F)c(-c2cccc3c2OCN(C(=O)c2ccc(N4CC5(COC5)C4)cc2Cl)C3)cc1N1CCOCC1 [Compound 4-33, 4-[3-[2-Chloro-4-(2-oxa-6-azaspiro[3.3]heptan-6-yl)benzoyl]-2,4-dihydro-1,3-benzoxazin-8-yl]-5-fluoro-2-morpholin-4-ylbenzoic acid]	5.1
O=C(O)c1cc(F)c(-c2cccc3c2OCN(C(=O)c2c(Cl)cc(OC[C@H]4CCCO4)cc2Cl)C3)cc1N1C2CCC1COC2 [Compound 4-34, 4-[3-[2,6-Dichloro-4-[[(2R)-oxolan-2-yl]methoxy]benzoyl]-2,4-dihydro-1,3-benzoxazin-8-yl]-5-fluoro-2-(3-oxa-8-azabicyclo[3.2.1]octan-8-yl)benzoic acid]	3.8
CC(C)(O)CCOc1cc(Cl)c(C(=O)N2COc3c(cccc3-c3cc(N4C5CCC4COC5)c(C(=O)O)cc3F)C2)c(Cl)c1 [Compound 4-35, 4-[3-[2,6-Dichloro-4-(3-hydroxy-3-methylbutoxy)benzoyl]-2,4-dihydro-1,3-benzoxazin-8-yl]-5-fluoro-2-(3-oxa-8-azabicyclo[3.2.1]octan-8-yl)benzoic acid]	20
O=C(O)c1cc(F)c(-c2cccc3c2OCN(C(=O)c2c(Cl)cc(OC[C@H]4CCOC4)cc2Cl)C3)cc1N1C2CCC1COC2 [Compound 4-38, 4-[3-[2,6-Dichloro-4-[[(3S)-oxolan-3-yl]methoxy]benzoyl]-2,4-dihydro-1,3-benzoxazin-8-yl]-5-fluoro-2-(3-oxa-8-azabicyclo[3.2.1]octan-8-yl)benzoic acid]	5.1
CCOc1cc(Cl)c(C(=O)N2COc3c(cccc3-c3cc(N4C5CCC4COC5)c(C(=O)O)cc3F)C2)c(Cl)c1 [Compound 4-39, 4-[3-(2,6-Dichloro-4-ethoxybenzoyl)-2,4-dihydro-1,3-benzoxazin-8-yl]-5-fluoro-2-(3-oxa-8-azabicyclo[3.2.1]octan-8-yl)benzoic acid]	6.9
COc1cc(Cl)c(C(=O)N2COc3c(cccc3-c3cc(N4C5CCC4COC5)c(C(=O)O)cc3F)C2)c(Cl)c1 [Compound 4-40, 4-[3-(2,6-Dichloro-4-methoxybenzoyl)-2,4-dihydro-1,3-benzoxazin-8-yl]-5-fluoro-2-(3-oxa-8-azabicyclo[3.2.1]octan-8-yl)benzoic acid]	8.9
O=C(O)c1cc(F)c(-c2cccc3c2OCN(C(=O)c2c(Cl)cc(OCC4CCOCC4)cc2Cl)C3)cc1N1C2CCC1COC2 [Compound 4-41, 4-[3-[2,6-Dichloro-4-(oxan-4-ylmethoxy)benzoyl]-2,4-dihydro-1,3-benzoxazin-8-yl]-5-fluoro-2-(3-oxa-8-azabicyclo[3.2.1]octan-8-yl)benzoic acid]	4.7
O=C(O)c1cc(F)c(-c2cccc3c2OCN(C(=O)c2c(Cl)cc(OC[C@@H]4COCCO4)cc2Cl)C3)cc1N1C2CCC1COC2 [Compound 4-42, 4-[3-[2,6-Dichloro-4-[[(2S)-1,4-dioxan-2-yl]methoxy]benzoyl]-2,4-dihydro-1,3-benzoxazin-8-yl]-5-fluoro-2-(3-oxa-8-azabicyclo[3.2.1]octan-8-yl)benzoic acid]	4.4
O=C(O)c1ccc(-c2cccc3c2OCN(C(=O)c2c(Cl)cc(OCCCCO)cc2Cl)C3)cc1N1CCOCC1 [Compound 4-43, 4-[3-[2,6-Dichloro-4-(4-hydroxybutoxy)benzoyl]-2,4-dihydro-1,3-benoxazin-8-yl]-2-morpholin-4-ylbenzoic acid]	7.4
CN(C)CCOc1cc(Cl)c(C(=O)N2COc3c(cccc3-c3ccc(C(=O)O)c(N4CCOCC4)c3)C2)c(Cl)c1 [Compound 4-44, 4-[3-[2,6-Dichloro-4-[2-(dimethylamino)ethoxy]benzoyl]-2,4-dihydro-1,3-benzoxazin-8-yl]-2-morpholin-4-ylbenzoic acid]	16
CC(C)(O)CCOc1cc(Cl)c(C(=O)N2COc3c(cccc3-c3ccc(C(=O)O)c(N4CCOCC4)c3)C2)c(Cl)c1 [Compound 4-45, 4-[3-[2,6-Dichloro-4-(3-hydroxy-3-methylbutoxy)benzoyl]-2,4-dihydro-1,3-benzoxazin-8-yl]-2-morpholin-4-ylbenzoic acid]	10
Cn1cc(Oc2cc(Cl)c(C(=O)N3COc4c(cccc4-c4cc(N5CCOCC5)c(C(=O)O)cc4F)C3)c(Cl)c2)cn1 [Compound 4-46, 4-[3-[2,6-Dichloro-4-(1-methylpyrazol-4-yl)oxybenzoyl]-2,4-dihydro-1,3-benzoxazin-8-yl]-5-fluoro-2-morpholin-4-ylbenzoic acid]	14
COCCN1CCC(Oc2cc(Cl)c(C(=O)N3COc4c(cccc4-c4cc(N5CCOCC5)c(C(=O)O)cc4F)C3)c(Cl)c2)CC1 [Compound 4-47, 4-[3-[2,6-Dichloro-4-[1-(2-methoxyethyl)piperidin-4-yl]oxybenzoyl]-2,4-dihydro-1,3-benzoxazin-8-yl]-5-fluoro-2-morpholin-4-ylbenzoic acid]	3.3
CN1CCC(COc2cc(Cl)c(C(=O)N3COc4c(cccc4-c4cc(N5CCOCC5)c(C(=O)O)cc4F)C3)c(Cl)c2)CC1 [Compound 4-48, 4-[3-[2,6-Dichloro-4-[(1-methylpiperidin-4-yl)methoxy]benzoyl]-2,4-dihydro-1,3-benzoxazin-8-yl]-5-fluoro-2-morpholin-4-ylbenzoic acid]	2.6
O=C(O)c1cc(F)c(-c2cccc3c2OCN(C(=O)c2c(Cl)cc(OCCCN4CCOCC4)cc2Cl)C3)cc1N1CCOCC1 [Compound 4-49, 4-[3-[2,6-Dichloro-4-(3-morpholin-4-ylpropoxy)benzoyl]-2,4-dihydro-1,3-benzoxazin-8-yl]-5-fluoro-2-morpholin-4-ylbenzoic acid]	1.2
CN1CC[C@@H](Oc2cc(Cl)c(C(=O)N3COc4c(cccc4-c4cc(N5CCOCC5)c(C(=O)O)cc4F)C3)c(Cl)c2)C1 [Compound 4-50, 4-[3-[2,6-Dichloro-4-[(3R)-1-methylpyrrolidin-3-yl]oxybenzoyl]-2,4-dihydro-1,3-benzoxazin-8-yl]-5-fluoro-2-morpholin-4-ylbenzoic acid]	2.8
O=C(O)c1cc(F)c(-c2cccc3c2OCN(C(=O)c2c(Cl)cc(OCCCCO)cc2Cl)C3)cc1N1CCOCC1 [Compound 4-51, 4-[3-[2,6-Dichloro-4-(4-hydroxybutoxy)benzoyl]-2,4-dihydro-1,3-benzoxazin-8-yl]-5-fluoro-2-morpholin-4-ylbenzoic acid]	2.6
CN1CCC(Oc2cc(Cl)c(C(=O)N3COc4c(cccc4-c4cc(N5CCOCC5)c(C(=O)O)cc4F)C3)c(Cl)c2)CC1 [Compound 4-52, 4-[3-[2,6-Dichloro-4-(1-methylpiperidin-4-yl)oxybenzoyl]-2,4-dihydro-1,3-benzoxazin-8-yl]-5-fluoro-2-morpholin-4-ylbenzoic acid]	1.1
CN1CCCC(Oc2cc(Cl)c(C(=O)N3COc4c(cccc4-c4cc(N5CCOCC5)c(C(=O)O)cc4F)C3)c(Cl)c2)C1 (stereo not drawn) [Compound 4-53, 4-[3-[2,6-Dichloro-4-(1-methylpiperidin-3-yl)oxybenzoyl]-2,4-dihydro-1,3-benzoxazin-8-yl]-5-fluoro-2-morpholin-4-ylbenzoic acid]	2.9
CCOc1cc(Cl)c(C(=O)N2COc3c(cccc3-c3cc(N4CCOCC4)c(C(=O)O)cc3F)C2)cc1OC [Compound 4-54, 4-[3-(2-Chloro-4-ethoxy-5-methoxybenzoyl)-2,4-dihydro-1,3-benzoxazin-8-yl]-5-fluoro-2-morpholin-4-ylbenzoic acid]	1.2
